# Tests used:
# Experiment in all cases: Test E pre-/postemergence plant response
# Assay type in all cases: in vivo
# [1] = system: large crabgrass (Digitaria sanguinalis); details: scale 0 to 100
# Outline: (§1)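 Plants scored visually versus controls on a 0–100 scale (100 = complete control) 14 to 21 days after treatment in the greenhouse. Test chemicals in a surfactant-containing non-phytotoxic solvent were applied to soil preemergence or to 1- to 4-leaf plants, 2–18 cm tall.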
# [2] = system: broadleaf signalgrass (Brachiaria platyphylla); details: scale 0 to 100
# Outline: as §1
# [3] = system: johnsongrass (Sorghum halepense); details: scale 0 to 100
# Outline: as §1
# [4] = system: dallisgrass (Paspalum dilatatum); details: scale 0 to 100
# Outline: as §1
# [5] = system: quackgrass (Elytrigia repens); details: scale 0 to 100
# Outline: as §1
# [6] = system: pitted morningglory (Ipomoea lacunosa); details: scale 0 to 100
# Outline: as §1
# [7] = system: surinam grass (Brachiaria decumbens); details: scale 0 to 100
# Outline: as §1
# [8] = system: barnyardgrass (Echinochloa crus-galli)
# Outline: as §1
# [9] = system: green foxtail (Setaria viridis); details: scale 0 to 100
# Outline: as §1
# [10] = system: Italian ryegrass (Lolium multiflorum); details: scale 0 to 100
# Outline: as §1
# [11] = system: guineagrass (Panicum maximum); details: scale 0 to 100
# Outline: as §1
# [12] = system: common mallow (Malva sylvestris); details: scale 0 to 100
# Outline: as §1
structure (smiles),measurement,setting,value
CCc1cc(-c2ccc(C(F)(F)F)cc2)nn1-c1c(OC(=O)OC(C)C)cnn(C)c1=O [Compound 12],"Plant response rating, Crabgrass, Large","[1]; 4 g ai/ha, Postemergence",0
same,"Plant response rating, Crabgrass, Large","[1]; 8 g ai/ha, Preemergence",35
same,"Plant response rating, Crabgrass, Large","[1]; 31 g ai/ha, Preemergence",98
same,"Plant response rating, Crabgrass, Large","[1]; Postemergence, 8 g ai/ha",65
same,"Plant response rating, Crabgrass, Large","[1]; Postemergence, 31 g ai/ha",95
same,"Plant response rating, Crabgrass, Large","[1]; Preemergence, 4 g ai/ha",0
same,"Plant response rating, Signalgrass","[2]; 4 g ai/ha, Postemergence",65
same,"Plant response rating, Signalgrass","[2]; 31 g ai/ha, Preemergence",95
same,"Plant response rating, Signalgrass","[2]; Postemergence, 8 g ai/ha",80
same,"Plant response rating, Signalgrass","[2]; Postemergence, 31 g ai/ha",100
same,"Plant response rating, Signalgrass","[2]; Preemergence, 4 g ai/ha",0
same,"Plant response rating, Johnsongrass","[3]; 4 g ai/ha, Postemergence",95
same,"Plant response rating, Johnsongrass","[3]; 31 g ai/ha, Preemergence",95
same,"Plant response rating, Johnsongrass","[3]; Postemergence, 8 g ai/ha",95
same,"Plant response rating, Johnsongrass","[3]; Postemergence, 31 g ai/ha",95
same,"Plant response rating, Johnsongrass","[3]; Preemergence, 4 g ai/ha",75
same,"Plant response rating, Dallisgrass","[4]; 4 g ai/ha, Postemergence",65
same,"Plant response rating, Dallisgrass","[4]; 8 g ai/ha, Preemergence",40
same,"Plant response rating, Dallisgrass","[4]; 31 g ai/ha, Preemergence",100
same,"Plant response rating, Dallisgrass","[4]; Postemergence, 8 g ai/ha",75
same,"Plant response rating, Dallisgrass","[4]; Postemergence, 31 g ai/ha",85
same,"Plant response rating, Dallisgrass","[4]; Preemergence, 4 g ai/ha",0
same,"Plant response rating, Quackgrass","[5]; 4 g ai/ha, Postemergence",20
same,"Plant response rating, Quackgrass","[5]; 31 g ai/ha, Preemergence",80
same,"Plant response rating, Quackgrass","[5]; Postemergence, 8 g ai/ha",30
same,"Plant response rating, Quackgrass","[5]; Postemergence, 31 g ai/ha",95
same,"Plant response rating, Quackgrass","[5]; Preemergence, 4 g ai/ha",0
same,"Plant response rating, Morningglory","[6]; 4 g ai/ha, Postemergence",0
same,"Plant response rating, Morningglory","[6]; 31 g ai/ha, Preemergence",0
same,"Plant response rating, Morningglory","[6]; Postemergence, 8 g ai/ha",0
same,"Plant response rating, Morningglory","[6]; Postemergence, 31 g ai/ha",0
same,"Plant response rating, Morningglory","[6]; Preemergence, 4 g ai/ha",0
same,"Plant response rating, Surinam Grass","[7]; 4 g ai/ha, Postemergence",35
same,"Plant response rating, Surinam Grass","[7]; 31 g ai/ha, Preemergence",95
same,"Plant response rating, Surinam Grass","[7]; Postemergence, 8 g ai/ha",90
same,"Plant response rating, Surinam Grass","[7]; Postemergence, 31 g ai/ha",98
same,"Plant response rating, Surinam Grass","[7]; Preemergence, 4 g ai/ha",0
same,"Plant response rating, Barnyardgrass","[8]; 4 g ai/ha, Postemergence, scale 0 to 100",90
same,"Plant response rating, Barnyardgrass","[8]; 8 g ai/ha, Preemergence, scale 0 to 100",70
same,"Plant response rating, Barnyardgrass","[8]; 31 g ai/ha, Preemergence, scale 0 to 100",95
same,"Plant response rating, Barnyardgrass","[8]; Postemergence, 8 g ai/ha, scale 0 to 100",100
same,"Plant response rating, Barnyardgrass","[8]; Postemergence, 31 g ai/ha, scale 0 to 100",100
same,"Plant response rating, Barnyardgrass","[8]; Preemergence, 4 g ai/ha, scale 0 to 100, 0 no effect, 100 complete control",20
same,"Plant response rating, Foxtail, Green","[9]; 4 g ai/ha, Postemergence",30
same,"Plant response rating, Foxtail, Green","[9]; 8 g ai/ha, Preemergence",60
same,"Plant response rating, Foxtail, Green","[9]; 31 g ai/ha, Preemergence",100
same,"Plant response rating, Foxtail, Green","[9]; Postemergence, 8 g ai/ha",90
same,"Plant response rating, Foxtail, Green","[9]; Postemergence, 31 g ai/ha",100
same,"Plant response rating, Foxtail, Green","[9]; Preemergence, 4 g ai/ha",0
same,"Plant response rating, Ryegrass, Italian","[10]; 4 g ai/ha, Postemergence",75
same,"Plant response rating, Ryegrass, Italian","[10]; 31 g ai/ha, Preemergence",98
same,"Plant response rating, Ryegrass, Italian","[10]; Postemergence, 8 g ai/ha",100
same,"Plant response rating, Ryegrass, Italian","[10]; Postemergence, 31 g ai/ha",100
same,"Plant response rating, Ryegrass, Italian","[10]; Preemergence, 4 g ai/ha",40
same,"Plant response rating, Guineagrass","[11]; 4 g ai/ha, Postemergence",95
same,"Plant response rating, Guineagrass","[11]; 31 g ai/ha, Preemergence",100
same,"Plant response rating, Guineagrass","[11]; Postemergence, 8 g ai/ha",95
same,"Plant response rating, Guineagrass","[11]; Postemergence, 31 g ai/ha",95
same,"Plant response rating, Guineagrass","[11]; Preemergence, 4 g ai/ha",0
same,"Plant response rating, Mallow","[12]; 4 g ai/ha, Postemergence",0
same,"Plant response rating, Mallow","[12]; 31 g ai/ha, Preemergence",0
same,"Plant response rating, Mallow","[12]; Postemergence, 8 g ai/ha",0
same,"Plant response rating, Mallow","[12]; Postemergence, 31 g ai/ha",0
same,"Plant response rating, Mallow","[12]; Preemergence, 4 g ai/ha",0

# Reference: patent publication US20100267561A1, “HERBICIDAL PYRIDAZINONE DERIVATIVES” (priority 2007, published 2010)
